Where a name gives a salt, the structure may show the parent alone.
molecular target: human FLAP (Homo sapiens (Human), UniProt P20292); assay: FLAP binding assay (HTRF); settings: human FLAP-containing membranes, HTRF format; average of two assay plates, duplicates; read-out: FLAP Binding wild type HTRF Ki
Method: The ability of the compounds of the present invention to treat a FLAP-mediated disease and/or disorder, or associated symptoms or complications thereof, was determined using the following procedures. Binding assay data represent the average value obtained from two different assay plates, with samples run in duplicate on each plate. Human whole blood assay data represent a single replicate on an assay plate using whole blood from at least one healthy donor.
Data are expressed as a HTRF ratio.

human FLAP, sequence (P20292 whole entry): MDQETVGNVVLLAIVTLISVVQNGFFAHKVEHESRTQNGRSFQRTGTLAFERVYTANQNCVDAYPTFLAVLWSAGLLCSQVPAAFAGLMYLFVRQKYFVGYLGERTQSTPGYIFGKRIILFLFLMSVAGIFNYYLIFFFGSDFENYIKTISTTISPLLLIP

| Ki [µM] | Compound |
| --- | --- |
| > 10 | Nc1cnc(-c2ccc(C3CCC3)c(OCC(O)CN3CCC(O)C3)c2F)cn1 (mixture of isomers) [Example 308, diastereomeric mixture 1-{3-[3-(5-Aminopyrazin-2-yl)-6-cyclobutyl-2-fluorophenoxy]-2-hydroxypropyl}pyrrolidin-3-ol] |
| 0.324 | Nc1cnc(-c2ccc(C3CCC3)c(OCC(O)Cn3ccccc3=O)c2F)cn1 (racemic) [Example 51, racemic 1-(3-(3-(5-Aminopyrazin-2-yl)-6-cyclobutyl-2-fluorophenoxy)-2-hydroxypropyl)pyridin-2(1H)-one] |
| 0.992 | Nc1cnc(-c2ccc(C3CCC3)c(OCC(O)CO)c2F)cn1 (racemic) [Example 254, 3-(3-(5-Aminopyrazin-2-yl)-6-cyclobutyl-2-fluorophenoxy)propane-1,2-diol] |
| > 10 | Nc1cnc(-c2ccc(C3CCC3)c(OCC3CCCNC3)c2F)cn1 (racemic) [Example 299, racemic 5-[4-Cyclobutyl-2-fluoro-3-(piperidin-3-ylmethoxy)phenyl]pyrazin-2-amine] |
| > 10 | Nc1cnc(-c2ccc(C3CCC3)c(OCC3CCNC3)c2F)cn1 (racemic) [Example 300, racemic 5-[4-Cyclobutyl-2-fluoro-3-(pyrrolidin-3-ylmethoxy)phenyl]pyrazin-2-amine] |
| > 10 | Nc1cnc(-c2ccc(C3CCC3)c(OCC3CCCN3)c2F)cn1 (racemic) [Example 302, racemic 5-[4-Cyclobutyl-2-fluoro-3-(pyrrolidin-2-ylmethoxy)phenyl]pyrazin-2-amine] |
| > 10 | Nc1cnc(-c2ccc(C3CCC3)c(OCC(O)CN3CCCCC3)c2F)cn1 (racemic) [Example 303, racemic 5 1-[3-(5-Aminopyrazin-2-yl)-6-cyclobutyl-2-fluorophenoxy]-3-piperidin-1-ylpropan-2-ol] |
| > 10 | CNCC(O)COc1c(C2CCC2)ccc(-c2cnc(N)cn2)c1F (racemic) [Example 304, racemic 1-[3-(5-Aminopyrazin-2-yl)-6-cyclobutyl-2-fluorophenoxy]-3-(methylamino)propan-2-ol] |
| > 10 | CC(C)NCC(O)COc1c(C2CCC2)ccc(-c2cnc(N)cn2)c1F (racemic) [Example 305, racemic 1-[3-(5-Aminopyrazin-2-yl)-6-cyclobutyl-2-fluorophenoxy]-3-[(1-methylethyl)amino]propan-2-ol] |
| > 10 | Nc1cnc(-c2ccc(C3CCC3)c(OCC(O)CN3CCCC3)c2F)cn1 (racemic) [Example 306, racemic 1-[3-(5-Aminopyrazin-2-yl)-6-cyclobutyl-2-fluorophenoxy]-3-pyrrolidin-1-ylpropan-2-ol] |
| > 10 | CN(C)CC(O)COc1c(C2CCC2)ccc(-c2cnc(N)cn2)c1F (racemic) [Example 307, racemic 1-[3-(5-Aminopyrazin-2-yl)-6-cyclobutyl-2-fluorophenoxy]-3-(dimethylamino)propan-2-ol] |
| > 10 | Nc1cnc(-c2ccc(C3CCC3)c(OCC(O)CN3CCNCC3)c2F)cn1 (racemic) [Example 309, racemic 1-[3-(5-Aminopyrazin-2-yl)-6-cyclobutyl-2-fluorophenoxy]-3-piperazin-1-ylpropan-2-ol] |
| > 10 | Nc1cnc(-c2ccc(C3CCC3)c(OCC(O)Cn3cccnc3=O)c2F)cn1 (racemic) [Example 310, racemic 1-{3-[3-(5-Aminopyrazin-2-yl)-6-cyclobutyl-2-fluorophenoxy]-2-hydroxypropyl}pyrimidin-2(1H)-one] |
| 0.974 | Nc1cnc(-c2ccc(C3CCC3)c(OCC(O)CN3CCNC3=O)c2F)cn1 (racemic) [Example 312, racemic 1-{3-[3-(5-Aminopyrazin-2-yl)-6-cyclobutyl-2-fluorophenoxy]-2-hydroxypropyl}imidazolidin-2-one] |
| 0.808 | Nc1cnc(-c2ccc(C3CCC3)c(OCc3cccc(OC(F)(F)F)c3)c2F)cn1 [Example 9, 5-(4-Cyclobutyl-2-fluoro-3-{[3-(trifluoromethoxy)benzyl]oxy}phenyl)-pyrazin-2-amine] |
| 0.866 | Nc1cnc(-c2ccc(C3CCC3)c(OCc3ccc(OC(F)(F)F)cc3)c2F)cn1 [Example 10, 5-(4-Cyclobutyl-2-fluoro-3-{[4-(trifluoromethoxy)benzyl]oxy}phenyl)-pyrazin-2-amine] |
| 0.304 | Nc1cnc(-c2ccc(C3CCC3)c(OCc3ccc(F)cc3)c2F)cn1 [Example 28, 5-{4-Cyclobutyl-2-fluoro-3-[(4-fluorobenzyl)oxy]phenyl}pyrazin-2-amine] |
| 0.354 | Nc1cnc(-c2ccc(C3CCC3)c(OCc3ccccc3F)c2F)cn1 [Example 30, 5-{4-Cyclobutyl-2-fluoro-3-[(2-fluorobenzyl)oxy]phenyl}pyrazin-2-amine] |
| 0.354 | Nc1cnc(-c2ccc(C3CCC3)c(OCc3cccc(F)c3F)c2F)cn1 [Example 32, 5-{4-Cyclobutyl-3-[(2,3-difluorobenzyl)oxy]-2-fluorophenyl}pyrazin-2-amine] |

| Ki [µM] | Compound |
| --- | --- |
| 0.612 | Nc1cnc(-c2ccc(C3CCC3)c(OCc3ccc(Cl)cc3Cl)c2F)cn1 [Example 40, 5-{4-Cyclobutyl-3-[(2,4-dichlorobenzyl)oxy]-2-fluorophenyl}pyrazin-2-amine] |
| 2 | Nc1cnc(-c2ccc(C3CCC3)c(OCc3cccc(C(F)(F)F)c3Cl)c2F)cn1 [Example 42, 5-(3-{[2-Chloro-3-(trifluoromethyl)benzyl]oxy}-4-cyclobutyl-2-fluorophenyl)pyrazin-2-amine] |
| 0.43 | Nc1cnc(-c2ccc(C3CCC3)c(OCc3cc(Cl)ccc3C(F)(F)F)c2F)cn1 [Example 43, 5-(3-{[5-Chloro-2-(trifluoromethyl)benzyl]oxy}-4-cyclobutyl-2-fluorophenyl)pyrazin-2-amine] |
| 1.5 | Nc1cnc(-c2ccc(C3CCC3)c(OCc3ccc(F)cc3C(F)(F)F)c2F)cn1 [Example 44, 5-(4-Cyclobutyl-2-fluoro-3-{[4-fluoro-2-(trifluoro-methyl)benzyl]oxy}phenyl)pyrazin-2-amine] |
| 1.5 | Nc1cnc(-c2ccc(C3CCC3)c(OCC(=O)O)c2F)cn1 [Example 50, [3-(5-Aminopyrazin-2-yl)-6-cyclobutyl-2-fluorophenoxy]acetic acid] |
| 0.62 | Nc1cnc(-c2ccc(C3CCC3)c(OCC3CCCCC3)c2F)cn1 [Example 71, 5-[4-Cyclobutyl-3-(cyclohexylmethoxy)-2-fluorophenyl]pyrazin-2-amine] |
| 0.37 | Cc1noc(COc2c(C3CCC3)ccc(-c3cnc(N)cn3)c2F)n1 [Example 75, 5-{4-Cyclobutyl-2-fluoro-3-[(3-methyl-1,2,4-oxadiazol-5-yl)methoxy]phenyl}pyrazin-2-amine] |
| 0.394 | Nc1cnc(-c2ccc(C3CCC3)c(OCc3ccccc3S(F)(F)(F)(F)F)c2F)cn1 [Example 81, 5-(4-Cyclobutyl-2-fluoro-3-{[2-(pentafluoro-lambda~6~- sulfanyl)benzyl]oxy}phenyl)pyrazin-2-amine] |
| 0.304 | Nc1cnc(-c2ccc(C3CCC3)c(OCC3CCC3)c2F)cn1 [Example 82, 5-[4-Cyclobutyl-3-(cyclobutylmethoxy)-2-fluorophenyl]pyrazin-2-amine] |
| 0.25 | Nc1cnc(-c2ccc(C3CCC3)c(Oc3cnc(C(F)(F)F)cn3)c2F)cn1 [Example 105, 5-(4-Cyclobutyl-2-fluoro-3-{[5-(trifluoromethyl)pyrazin-2-yl]oxy}phenyl)pyrazin-2-amine] |
| 2.5 | CS(=O)(=O)c1ccccc1Oc1c(C2CCC2)ccc(-c2cnc(N)cn2)c1F [Example 117, 5-{4-Cyclobutyl-2-fluoro-3-[2-(methylsulfonyl)phenoxy]phenyl}pyrazin-2-amine] |
| 0.304 | Nc1cnc(-c2ccc(C3CCC3)c(Oc3ccc(C(F)(F)F)c(C(F)(F)F)c3)c2F)cn1 [Example 120, 5-{3-[3,4-Bis(trifluoromethyl)phenoxy]-4-cyclobutyl-2-fluorophenyl}pyrazin-2-amine] |
| 0.25 | Nc1cnc(-c2ccc(C3CCC3)c(Oc3ncccc3C(F)(F)F)c2F)cn1 [Example 121, 5-(4-Cyclobutyl-2-fluoro-3-{[3-(trifluoromethyl)pyridin-2-yl]oxy}phenyl)pyrazin-2-amine] |
| 0.25 | Nc1cnc(-c2ccc(C3CCC3)c(Oc3cc(C(F)(F)F)ncn3)c2F)cn1 [Example 125, 5-(4-Cyclobutyl-2-fluoro-3-{[6-(trifluoromethyl)pyrimidin-4-yl]oxy}phenyl)pyrazin-2-amine] |
| 2.2 | CS(=O)(=O)c1ccc(Oc2c(C3CCC3)ccc(-c3cnc(N)cn3)c2F)c(C(F)(F)F)c1 [Example 127, 5-(4-cyclobutyl-2-fluoro-3-(4-(methylsulfonyl)-2-(trifluoro-methyl)phenoxy)phenyl)pyrazin-2-amine] |
| 0.297 | Nc1cnc(-c2ccc(C3CCC3)c(Oc3ccc(C(F)(F)F)nc3)c2F)cn1 [Example 128, 5-(4-Cyclobutyl-2-fluoro-3-{[6-(trifluoromethyl)pyridin-3-yl]oxy}phenyl)pyrazin-2-amine] |
| 0.101 | Cn1nc(Oc2c(C3CCC3)ccc(-c3cnc(N)cn3)c2F)c(C#N)c1C(F)(F)F [Example 148, 3-[3-(5-Aminopyrazin-2-yl)-6-cyclobutyl-2-fluorophenoxy]-1-methyl-5-(trifluoromethyl)-1H-pyrazole-4-carbonitrile] |
| 2.24 | CN(C)CCNc1nccc(Oc2c(C3CCC3)ccc(-c3cnc(N)cn3)c2F)n1 [Example 156, N′-{4-[3-(5-Aminopyrazin-2-yl)-6-cyclobutyl-2-fluorophenoxy]pyrimidin-2-yl}-N,N-dimethylethane-1,2-diamine hydrochloride] |
| 0.682 | N#Cc1nc(N)cnc1-c1ccc(C2CCC2)c(O)c1F [Example 173, 6-amino-3-(4-cyclobutyl-2-fluoro-3-hydroxyphenyl)pyrazine-2-carbonitrile] |

| Compound | Ki [µM] |
| --- | --- |
| 5-(4-Cyclobutyl-2-fluoro-3- methoxyphenyl)pyridin-2-amine hydrochloride salt [Example 178] | 0.354 |

From patent publication US9073876B2, “Flap modulators” (JANSSEN PHARMACEUTICA NV, priority 2013, dated 2015)
